Here are results for six compounds from ChEMBL document CHEMBL1125024, “Hemoglobin S antigelation agents based on 5-bromotryptophan with potential for sickle cell anemia” (J Med Chem, 1990).

The structures appear in SMILES notation. Where a SMILES comes first, the peptide text is derived from it. [ ]: non-standard residue; d: D form. Trp(5-Br) = N[C@@H](Cc1c[nH]c2ccc(Br)cc12)C(=O)O

The species named for the test is Homo sapiens. The experiment in a line: Inhibitory activity against aggregation of deoxy-HbS using CSAT assay. It counts as functional.

In the case of `N[C@@H](Cc1c[nH]c2ccccc12)C(=O)O`, the Slope was 124 g dl-1M-1.

On to `N[C@@H](Cc1c[nH]c2ccc(Br)cc12)C(=O)N[C@@H](Cc1c[nH]c2ccccc12)C(=O)O` (H-[Trp(5-Br)]-Trp-OH), for which the Slope is 334 g dl-1M-1.

For `N[C@@H](Cc1c[nH]c2ccccc12)C(=O)N[C@@H](Cc1c[nH]c2ccc(Br)cc12)C(=O)O` (H-Trp-[Trp(5-Br)]-OH), the Slope was 240 g dl-1M-1.

As to `N[C@@H](Cc1c[nH]c2ccccc12)C(=O)N[C@@H](Cc1c[nH]c2ccccc12)C(=O)O` (H-Trp-Trp-OH), the Slope was 235 g dl-1M-1.

For the compound `N[C@@H](Cc1c[nH]c2ccc(Br)cc12)C(=O)N[C@@H](Cc1c[nH]c2ccc(Br)cc12)C(=O)O` (H-[Trp(5-Br)]-[Trp(5-Br)]-OH), the Slope is 726 g dl-1M-1.

In the case of `N[C@@H](Cc1c[nH]c2ccc(Br)cc12)C(=O)O`, the Slope is 356 g dl-1M-1.
